# Results published in the supplement of paper PMC10307832.
# Columns and labels:
# Test in all cases: relative viability (nuclei count vs DMSO), 5 days (fraction); higher = more cells survive
# Salubrinal + Lapatinib = compound: O=C(/C=C/c1ccccc1)NC(NC(=S)Nc1cccc2cccnc12)C(Cl)(Cl)Cl [Salubrinal] + CS(=O)(=O)CCNCc1ccc(-c2ccc3ncnc(Nc4ccc(OCc5cccc(F)c5)c(Cl)c4)c3c2)o1 [Lapatinib] (partner 2 µM)
# Summary of the method: (§1)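 Each reported value is a median over duplicate plates. It expresses relative viability: treated-well nuclei count divided by vehicle-well nuclei count. Lung cancer cell lines in 1536-well plates were dosed by pin tool a day after seeding, alone with one drug or with a fixed anchor-drug dose plus five library-drug doses (not always all listed) in √10 steps, and nuclei were counted after 5 days.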
# [1] = compound: Cc1ccc2nc(NCCN)c3ncc(C)n3c2c1 + N=C(N)NC(=N)NCCc1ccccc1 [Phenformin] (partner 250 µM)
# Summary of the method: as §1
# [2] = compound: Cc1ccc2nc(NCCN)c3ncc(C)n3c2c1 + O=C(CCCCCCC(=O)Nc1ccccc1)NO [Vorinostat] (partner 1 µM)
# Summary of the method: as §1
# Salubrinal + Vorinostat = compound: O=C(/C=C/c1ccccc1)NC(NC(=S)Nc1cccc2cccnc12)C(Cl)(Cl)Cl [Salubrinal] + O=C(CCCCCCC(=O)Nc1ccccc1)NO [Vorinostat] (partner 1 µM)
# Summary of the method: as §1
Cell Line,relative viability (Salubrinal + Lapatinib; first compound 0.08 µM),relative viability (Salubrinal + Lapatinib; first compound 0.253 µM),relative viability (Salubrinal + Lapatinib; first compound 0.8 µM),relative viability (Salubrinal + Lapatinib; first compound 2.53 µM),relative viability (Salubrinal + Lapatinib; first compound 8 µM),relative viability ([1]; first compound 0.04 µM),relative viability ([1]; first compound 0.1265 µM),relative viability ([1]; first compound 0.4 µM),relative viability ([1]; first compound 1.265 µM),relative viability ([1]; first compound 4 µM),relative viability ([2]; first compound 0.04 µM),relative viability ([2]; first compound 0.1265 µM),relative viability ([2]; first compound 0.4 µM),relative viability ([2]; first compound 1.265 µM),relative viability ([2]; first compound 4 µM),relative viability (Salubrinal + Vorinostat; first compound 0.08 µM),relative viability (Salubrinal + Vorinostat; first compound 0.253 µM),relative viability (Salubrinal + Vorinostat; first compound 0.8 µM),relative viability (Salubrinal + Vorinostat; first compound 2.53 µM),relative viability (Salubrinal + Vorinostat; first compound 8 µM)
NCI-H1650,0.805,0.817,0.9,0.731,0.953,0.442,0.488,0.455,0.414,0.464,0.709,0.466,0.509,0.469,0.478,0.76,0.592,0.672,0.456,0.648
NCI-H2009,0.997,1.02,0.914,0.872,0.793,0.514,0.399,0.489,0.401,0.393,0.7,0.736,0.72,0.709,0.617,0.815,0.785,0.696,0.693,0.657
LOU-NH91,0.71,0.776,0.776,0.778,0.752,0.729,0.693,0.756,0.654,0.664,1.02,0.902,0.87,0.931,0.858,0.933,0.925,1.08,0.903,0.841
NCI-H2405,1.01,1.03,1.13,1.07,1.09,0.417,0.385,0.451,0.371,0.375,1.2,0.943,0.946,1.01,0.93,0.998,1.06,1.22,1.04,0.99
LCLC-97TM1,1.03,0.799,0.842,,0.857,0.38,0.427,0.435,0.465,0.435,0.865,0.867,0.526,0.759,0.737,0.751,0.739,1.04,0.939,0.656
NCI-H596,1.05,1.02,1.21,1.08,0.887,0.695,0.787,0.644,0.614,0.826,0.674,0.714,0.609,0.668,0.588,0.607,0.356,0.796,0.825,0.715
NCI-H727,1.01,0.848,0.899,0.812,0.903,0.436,,0.527,0.555,0.64,1.3,,1.13,1.18,1.04,1.39,0.948,1.06,1.1,1.24
H3255,0.241,0.253,0.191,0.233,0.226,0.396,0.343,0.396,0.355,0.382,0.831,0.832,0.629,0.706,0.653,0.671,0.81,0.945,0.765,0.76
NCI-H2170,0.275,0.289,0.248,0.271,0.263,0.402,0.408,0.435,0.424,0.446,1.01,1.01,0.786,0.702,0.833,0.861,0.742,0.923,0.956,0.638
NCI-H1437,0.925,0.763,0.94,0.878,0.653,0.289,0.298,0.327,0.298,0.278,0.752,0.813,0.771,0.667,0.653,0.841,0.787,0.812,0.814,0.714
NCI-H358,0.531,0.514,0.365,0.494,0.47,0.391,0.313,0.323,0.359,0.402,0.74,0.617,0.66,0.629,0.564,0.804,0.659,0.757,0.641,0.661
LU99A,1.17,1.15,1.13,0.945,0.594,0.797,0.78,0.673,0.892,0.798,0.532,0.512,0.423,0.494,0.476,0.621,0.481,0.578,0.546,0.513
SK-MES-1,0.488,0.405,0.499,0.42,0.437,0.688,0.624,0.69,0.65,0.605,1.19,1.13,1.03,1.13,1.03,1.35,1,1.28,1.1,0.936
HCC-827,0.191,0.196,0.171,0.235,0.165,0.409,0.402,0.401,0.39,0.384,0.851,0.793,0.872,0.857,0.81,0.838,0.917,0.965,0.788,0.785
LK-2,1.07,0.977,1.16,0.994,0.85,0.358,0.559,0.307,0.325,0.415,0.384,0.409,0.302,0.315,0.322,0.257,0.279,0.356,0.395,0.325
HCC-366,1.23,0.796,1.12,1.01,1.08,0.588,0.609,0.638,0.606,0.537,0.421,0.359,0.244,0.361,0.296,0.494,,0.443,0.364,0.345
BEN,0.677,0.732,0.751,0.767,0.894,0.288,0.265,0.293,0.247,0.296,0.544,0.579,0.505,0.636,0.555,0.52,0.543,0.645,0.507,0.571
NCI-H23,1.08,1.1,1.34,0.955,1.36,0.797,0.858,0.704,0.786,0.754,0.759,0.654,0.501,0.493,0.578,0.784,0.614,0.644,0.486,0.69
NCI-H1395,0.953,0.973,1.2,0.819,0.858,0.45,0.498,0.412,0.419,0.46,0.891,0.765,0.662,0.651,0.56,0.617,0.768,1.09,0.901,0.558
201T,1.03,1.06,1.06,1.07,1.06,0.46,0.417,0.452,0.465,0.453,0.969,0.975,0.887,1.05,1.02,1.08,0.922,1.03,1.03,0.933
NCI-H1793,0.947,0.654,0.657,0.818,0.752,0.435,0.422,0.272,0.324,0.32,0.825,0.792,0.815,0.642,0.679,0.942,0.57,0.995,0.814,0.719
NCI-H460,1.6,0.445,1.76,0.948,0.75,0.515,0.512,0.525,0.539,0.394,0.74,0.7,0.708,0.683,0.631,1.18,0.74,0.976,0.713,0.511
NCI-H661,0.609,0.497,0.248,0.467,0.412,0.26,0.375,0.254,0.293,0.308,0.752,0.778,0.748,0.785,0.834,0.839,0.739,0.852,0.806,0.793
HCC-15,0.902,0.736,1,0.88,0.875,0.464,0.501,0.48,0.429,0.379,0.852,0.873,0.78,0.78,0.744,0.952,0.784,0.866,0.826,0.804
ABC-1,1.46,1.35,1.17,1.25,1.15,0.236,0.27,0.297,0.248,0.226,1.32,1.12,1.39,0.989,0.836,1.14,0.947,0.971,1.34,1.11
EPLC-272H,0.838,0.804,1.32,0.93,0.761,0.317,0.397,0.383,0.373,0.294,0.564,0.406,0.279,0.374,0.415,0.464,,0.539,0.427,0.336
